Laboratory results as given in article PMC12396409, “Screening and hit evaluation of a microbial metabolite library against the pathogenic Plasmodium falciparum and Toxoplasma gondii parasites” (International Journal for Parasitology: Drugs and Drug …, 2025).
Read-outs that look alike come from different tables or passages of the source.

Experiments:
[1] = system: P. falciparum 3D7 parasites; experiment: P. falciparum growth inhibition assay, 1-cycle (72 h treatment), SYBR DNA staining (library screen at 2 μg/mL and dose-response); type: cell-based, Plasmodium falciparum; details: for activity at 2 µg/mL: Plasmodium falciparum
[2] = system: P. falciparum 3D7 parasites; experiment: P. falciparum growth inhibition assay, 2-cycle (120 h treatment), delayed-death screen and dose-response; type: cell-based, Plasmodium falciparum; details: for activity at 2 µg/mL: Plasmodium falciparum
[3] = system: T. gondii RH strain (RH-Tub-eYFP) tachyzoites; experiment: microbe, parasite or virus in culture; type: cell-based, Toxoplasma gondii; details: 72 h, 72 h; for percent parasite growth at 2 µg/mL: Toxoplasma gondii
[4] = T. gondii, screen at 2 μg/mL, replicate 1, read-out: Tg_72h_%Growth_Rep1
[5] = T. gondii, screen at 2 μg/mL, replicate 2, read-out: Tg_72h_%Growth_Rep2
[6] = P. falciparum, 72 h, screen at 2 μg/mL, replicate 1
[7] = P. falciparum, 72 h, screen at 2 μg/mL, replicate 2
[8] = P. falciparum, 120 h, screen at 2 μg/mL, replicate 1
[9] = P. falciparum, 120 h, screen at 2 μg/mL, replicate 2
[10] = T. gondii, screen at 2 μg/mL, replicate 1
[11] = P. falciparum 3D7, 72 h, parasite screen at 2 μg/mL, % growth, replicate 1
[12] = P. falciparum 3D7, 72 h, parasite screen at 2 μg/mL, % growth, replicate 2
[13] = P. falciparum 3D7, 120 h, parasite screen at 2 μg/mL, % growth, replicate 1
[14] = P. falciparum 3D7, 120 h, parasite screen at 2 μg/mL, % growth, replicate 2
[15] = T. gondii, parasite screen at 2 μg/mL, % growth, replicate 1
[16] = T. gondii, parasite screen at 2 μg/mL, % growth, replicate 2

How did the activity at 2 µg/mL ([1]; 3D7, P. falciparum, 72 h, screen at 2 μg/mL, replicate 1, read-out: Pf_72h_%Growth_Rep1) turn out when CC[C@H]1OC(=O)[C@H](C)C(=O)[C@H](C)[C@@H](O[C@@H]2O[C@H](C)C[C@H](N(C)C)[C@H]2O)[C@](C)(OC)C[C@@H](C)C(=O)[C@H](C)[C@H]2N(CCCCn3cnc(-c4cccnc4)c3)C(=O)O[C@]12C [Telithromycin] was run?
Its activity at 2 µg/mL is 42.3%.

And the activity at 2 µg/mL ([1]; 3D7, P. falciparum, 72 h, screen at 2 μg/mL, replicate 2, read-out: Pf_72h_%Growth_Rep2)?
The activity at 2 µg/mL was 40.6%.

What about the activity at 2 µg/mL ([2]; 3D7, P. falciparum, 120 h, screen at 2 μg/mL, replicate 1, read-out: Pf_120h_%Growth_Rep1) of the same molecule?
Its activity at 2 µg/mL is 50.8%.

What about the activity at 2 µg/mL ([2]; 3D7, P. falciparum, 120 h, screen at 2 μg/mL, replicate 2, read-out: Pf_120h_%Growth_Rep2) of the same molecule?
Its activity at 2 µg/mL is 9.42%.

And the percent parasite growth at 2 µg/mL [3, 4]?
The percent parasite growth at 2 µg/mL was 56.9%.

And the percent parasite growth at 2 µg/mL [3, 5]?
The percent parasite growth at 2 µg/mL was 55.2%.

CNC[C@@H]1CC[C@@H](N)[C@@H](O[C@H]2[C@H](O)[C@@H](O[C@H]3OC[C@](C)(O)[C@H](NC)[C@H]3O)[C@H](N)C[C@@H]2N)O1 [Gentamicin C2b] was tested. Which Pf_72h_%Growth_Rep1 ([1]; library screen at 2 μg/mL, 72 h, % growth, replicate 1) did it give?
Its Pf_72h_%Growth_Rep1 is 6.39%.

And the Pf_72h_%Growth_Rep2 ([1]; library screen at 2 μg/mL, 72 h, % growth, replicate 2)?
The Pf_72h_%Growth_Rep2 was 7.30%.

What about the Pf_120h_%Growth_Rep1 ([2]; library screen at 2 μg/mL, 120 h, % growth, replicate 1) of the same molecule?
Its Pf_120h_%Growth_Rep1 is 7.99%.

What about the Pf_120h_%Growth_Rep2 ([2]; library screen at 2 μg/mL, 120 h, % growth, replicate 2) of the same molecule?
The Pf_120h_%Growth_Rep2 was 7.07%.

What about the Tg_72h_%Growth_Rep1 ([3]; library screen at 2 μg/mL, % growth, replicate 1) of the same molecule?
The Tg_72h_%Growth_Rep1 was 152.97%.

What about the Tg_72h_%Growth_Rep2 ([3]; library screen at 2 μg/mL, % growth, replicate 2) of the same molecule?
The Tg_72h_%Growth_Rep2 was 86.04%.

With C[C@H]1C(=O)N2c3ccccc3[C@@]3(O)C[C@@H](n4cnc5ccccc5c4=O)C(=O)N1[C@@H]23 [Chaetominine] as the molecule, how does the Pf_72h_%Growth_Rep1 [1, 6] read?
The Pf_72h_%Growth_Rep1 was 81.47%.

What about the Pf_72h_%Growth_Rep2 [1, 7] of the same molecule?
The Pf_72h_%Growth_Rep2 was 84.79%.

And the Pf_120h_%Growth_Rep1 [2, 8]?
The Pf_120h_%Growth_Rep1 was 101.17%.

What about the Pf_120h_%Growth_Rep2 [2, 9] of the same molecule?
Its Pf_120h_%Growth_Rep2 is 95.94%.

And the Tg_72h_%Growth_Rep1 [3, 10]?
Its Tg_72h_%Growth_Rep1 is 140.61%.

And the Tg_72h_%Growth_Rep2 ([3]; T. gondii, screen at 2 μg/mL, replicate 2)?
Its Tg_72h_%Growth_Rep2 is 97.41%.

What does the source list for CCC1OC2(CCC1C)CC1CC(CC=C(C)CC(C)C=CC=C3COC4C(O)C(C)=CC(C(=O)O1)C34O)O2 (centres unmarked) [BIA-M1052]?
Pf_72h_%Growth_Rep1 [1, 11]: 59.66%; Pf_72h_%Growth_Rep2 [1, 12]: 59.04%; Pf_120h_%Growth_Rep1 [2, 13]: 32.48%; Pf_120h_%Growth_Rep2 [2, 14]: 50.00%; Tg_72h_%Growth_Rep1 [3, 15]: 117.80%; Tg_72h_%Growth_Rep2 [3, 16]: 80.70%

C/C=C/C[C@@H](C)[C@@H](O)[C@H]1C(=O)N[C@@H](CC)C(=O)N(C)CC(=O)N(C)[C@@H](CC(C)C)C(=O)N[C@@H](C(C)C)C(=O)N(C)[C@@H](CC(C)C)C(=O)N[C@@H](C)C(=O)N[C@H](C)C(=O)N(C)[C@@H](CC(C)C)C(=O)N(C)[C@@H](CC(C)C)C(=O)N(C)[C@H](C(C)C)C(=O)N1C [Cyclosporin H] was tested. Which Pf_72h_%Growth_Rep1 [1, 6] did it give?
The Pf_72h_%Growth_Rep1 was 6.54%.

And the Pf_72h_%Growth_Rep2 [1, 7]?
The Pf_72h_%Growth_Rep2 was 2.27%.

And the Pf_120h_%Growth_Rep1 [2, 8]?
The Pf_120h_%Growth_Rep1 was 5.94%.

What about the Pf_120h_%Growth_Rep2 [2, 9] of the same molecule?
The Pf_120h_%Growth_Rep2 was 7.89%.

What about the Tg_72h_%Growth_Rep1 [3, 10] of the same molecule?
Its Tg_72h_%Growth_Rep1 is 148.50%.

With C=CC(C)(C)c1[nH]c2c(CC=C(C)C)cc(CC=C(C)C)cc2c1C[C@@H]1NC(=O)[C@H](C)NC1=O [Echinulin] as the molecule, how does the activity at 2 µg/mL ([1]; 3D7, library screen at 2 μg/mL, 72 h, % growth, replicate 1, read-out: Pf_72h_%Growth_Rep1) read?
The activity at 2 µg/mL was 25.2%.

What about the activity at 2 µg/mL ([1]; 3D7, library screen at 2 μg/mL, 72 h, % growth, replicate 2, read-out: Pf_72h_%Growth_Rep2) of the same molecule?
The activity at 2 µg/mL was 35.1%.

And the activity at 2 µg/mL ([2]; 3D7, library screen at 2 μg/mL, 120 h, % growth, replicate 1, read-out: Pf_120h_%Growth_Rep1)?
The activity at 2 µg/mL was 22.8%.

And the activity at 2 µg/mL ([2]; 3D7, library screen at 2 μg/mL, 120 h, % growth, replicate 2, read-out: Pf_120h_%Growth_Rep2)?
The activity at 2 µg/mL was 39.3%.

What about the percent parasite growth at 2 µg/mL ([3]; library screen at 2 μg/mL, % growth, replicate 1, read-out: Tg_72h_%Growth_Rep1) of the same molecule?
Its percent parasite growth at 2 µg/mL is 133%.

And the percent parasite growth at 2 µg/mL ([3]; library screen at 2 μg/mL, % growth, replicate 2, read-out: Tg_72h_%Growth_Rep2)?
Its percent parasite growth at 2 µg/mL is 104%.

What does the source list for Cn1c(=O)/c(=C/c2ccccc2)[nH]c(=O)/c1=C/c1ccccc1 [BIA-P1156]?
Pf_72h_%Growth_Rep1 [1, 11]: 84.26%; Pf_72h_%Growth_Rep2 [1, 12]: 90.89%; Pf_120h_%Growth_Rep1 [2, 13]: 81.04%; Pf_120h_%Growth_Rep2 [2, 14]: 137.39%; Tg_72h_%Growth_Rep1 [3, 15]: 116.90%; Tg_72h_%Growth_Rep2 [3, 16]: 94.03%

What does the source list for CNc1ccc2oc(C[C@H]3O[C@@]4(CC[C@H]3C)O[C@H]([C@H](C)C(=O)c3ccc[nH]3)[C@H](C)C[C@H]4C)nc2c1C(=O)O [Calcimycin]?
activity at 2 µg/mL ([1]; 3D7, 72 h, P. falciparum, 72 h, screen at 2 μg/mL, replicate 1, read-out: Pf_72h_%Growth_Rep1): 13.1%; activity at 2 µg/mL ([1]; 3D7, 72 h, P. falciparum, 72 h, screen at 2 μg/mL, replicate 2, read-out: Pf_72h_%Growth_Rep2): 6.23%; activity at 2 µg/mL ([2]; 3D7, 120 h, P. falciparum, 120 h, screen at 2 μg/mL, replicate 1, read-out: Pf_120h_%Growth_Rep1): 11.6%; activity at 2 µg/mL ([2]; 3D7, 120 h, P. falciparum, 120 h, screen at 2 μg/mL, replicate 2, read-out: Pf_120h_%Growth_Rep2): 3.04%; percent parasite growth at 2 µg/mL [3, 4]: 1.82%; percent parasite growth at 2 µg/mL [3, 5]: 1.52%
